Experimental findings from ChEMBL document CHEMBL1144599, “In vitro antimalarial activity of hyperforin, a prenylated acylphloroglucinol. A structure-activity study” (Bioorg Med Chem Lett, 2007) are described below.

Counter-ions that a name gives are not always drawn.

One assay deals with Plasmodium falciparum. The experiment in a line: Antiplasmodial activity after 48 hrs against Plasmodium falciparum K1 in human erythrocytes. It is filed as functional, organism-based.
The next assay relates to L6. The experiment in a line: Cytotoxicity against rat L6 cells after 72 hrs. It is filed as cell-based.
Where [1] appears, read: Plasmodium falciparum, K1, 48 h.

In the case of `COC1=C(CC=C(C)C)C(=O)[C@@]2(C(=O)C(C)C)C(=O)[C@]1(CC=C(C)C)C[C@H](CC=C(C)C)[C@@]2(C)CCC=C(C)C`, the midpoint of inhibition in the assay on Plasmodium falciparum (setting [1]), the IC50, lay at 7.8 µM. As to `CC(C)=CCC[C@]1(C)[C@@H](CC=C(C)C)C[C@]2(CC=C(C)C)C(=O)C(C)(CC=C(C)C)C(=O)[C@@]1(C(=O)C(C)C)C2=O` (stereo not given in full), the IC50 (commonly the concentration that gives 50% inhibition) in the assay with Plasmodium falciparum (setting [1]) is over 27 µM. `CC(C)=CCC[C@]1(C)[C@@H](CC=C(C)C)C[C@]2(CC=C(C)C)C(=O)[C@@](O)(CC=C(C)C)C(=O)[C@@]1(C(=O)C(C)C)C2=O`: the IC50 is 19.7 µM in the assay on L6 (Rattus norvegicus, L6, 72 h) and 0.6 µM with Plasmodium falciparum (setting [1]). In the assay on Plasmodium falciparum (setting [1]), `CC(C)=CCC[C@]1(C)[C@@H](CC=C(C)C)C[C@]2(CC=C(C)C)C(=O)C(Cl)(CC=C(C)C)C(=O)[C@@]1(C(=O)C(C)C)C2=O` (stereo not given in full) returned an IC50 of 6.7 µM. This counts as single-digit micromolar. For `CC(C)=C/C=C1/OC(=O)[C@@]2(CC=C(C)C)C[C@H](CC=C(C)C)[C@@](C)(CCC=C(C)C)[C@H](C(=O)C(C)C)C(=O)[C@@]12O`, the IC50 turned out to be 36 µM in the assay on L6 (Rattus norvegicus, L6, 72 h) and 3.8 µM in the assay on Plasmodium falciparum (setting [1]). Take `CC(=O)C1=C(O)C=C2Oc3c(C(C)=O)c(O)c(C)c(O)c3C2(C)C1=O` (stereo not given): the half-maximal inhibitory concentration (IC50) in the assay with Plasmodium falciparum (setting [1]) is 16.1 µM. Turning to `CC(C)=CCC[C@]1(C)[C@@H](CC=C(C)C)C[C@]2(CC=C(C)C)C(=O)C(CC=C(C)C)=C(O)[C@@]1(C(=O)C(C)C)C2=O` [listing 1 of 2 here], the IC50 worked out at 2.21 µM with L6 (Rattus norvegicus, L6, 72 h) and 1.5 µM in the assay on Plasmodium falciparum (setting [1]). For `CC(C)=CCC[C@]1(C)[C@@H](CC=C(C)C)C[C@]2(CC=C(C)C)C(=O)C(CC=C(C)C)=C(O)[C@@]1(C(=O)C(C)C)C2=O` [listing 2 of 2 here], the IC50 in the assay on L6 (l6) was 3.29 µM; in the assay with Plasmodium falciparum it was 2.1 µM. In the assay on Plasmodium falciparum (setting [1]), `CC(=O)C1=C(O)C=C2Oc3c(C(C)=O)c(O)c(C)c(O)c3[C@@]2(C)C1=O` [(+)-USNIC ACID] returned an IC50 of 15.3 µM. Regarding `CC(C)=CCC[C@]1(C)[C@@H](CC=C(C)C)C[C@@]2(CC=C(C)C)C(=O)[C@]1(C(=O)C(C)C)C(=O)C1=C2OC(C)(C)C=C1` [DEHYDROHYPERFORIN], the concentration for half-maximal inhibition (IC50) in the assay with Plasmodium falciparum (setting [1]) was 8.6 µM. Take `CC(C)=CCC[C@]1(C)[C@@H](CC=C(C)C)C[C@]23CC(C(C)(C)O)OC2=C(CC=C(C)C)C(=O)[C@@]1(C(=O)C(C)C)C3=O` (stereo not given in full) [FUROHYPERFORIN]: the IC50 with L6 (Rattus norvegicus, L6, 72 h) came out at 16.1 µM; in the assay with Plasmodium falciparum (setting [1]) it was 1.7 µM.

`CC(C)=CCC[C@]1(C)[C@@H](CC=C(C)C)C[C@]2(CC=C(C)C)C(=O)[C@@]3(CC=C(C)C)O[C@@]2(O)[C@]1(C(=O)C(C)C)C3=O` [HYPERFORINHEMIACETAL]: the IC50 came to 16.1 µM with L6 (Rattus norvegicus, L6, 72 h) and 2 µM in the assay with Plasmodium falciparum (setting [1]). On to `CC(C)=CCC[C@]1(C)[C@@H](CC=C(C)C)C[C@@]2(CC=C(C)C)C(=O)[C@]1(C(=O)C(C)C)C(=O)C(CC=C(C)C)=C2OC(=O)c1cccnc1` [HYPERFORINNICOTINATE], for which the IC50 in the assay on L6 (Rattus norvegicus, L6, 72 h) was found to be 23.9 µM; in the assay with Plasmodium falciparum (setting [1]), 4.8 µM.

Compound `COc1cc(C(=O)OC2=C(CC=C(C)C)C(=O)[C@@]3(C(=O)C(C)C)C(=O)[C@]2(CC=C(C)C)C[C@H](CC=C(C)C)[C@@]3(C)CCC=C(C)C)cc(OC)c1OC` [HYPERFORINTRIMETHOXYBENZOATE] had an IC50 in the assay with Plasmodium falciparum (setting [1]) of over 27 µM. On to `CC(C)CCC[C@]1(C)[C@@H](CCC(C)C)C[C@@]2(CCC(C)C)C(=O)[C@]1(C(=O)C(C)C)C(=O)C(CCC(C)C)=C2O` [OCTAHYDROHYPERFORIN DICYCLOHEXYLAMMONIUM SALT], for which the results for the IC50 in the assay on L6 (l6) and with Plasmodium falciparum were 3.12 µM and 1.4 µM, respectively. For the compound `CC(C)CCC[C@]1(C)[C@@H](CCC(C)C)C[C@@]2(CCC(C)C)C(=O)[C@]1(C(=O)C(C)C)C(=O)C(CCC(C)C)=C2O` [OCTAHYDROHYPERFORIN], the IC50 in the assay with L6 (Rattus norvegicus, L6, 72 h) was found to be 2.12 µM; in the assay with Plasmodium falciparum (setting [1]) it was 2.7 µM.
